Experiment [1] deals with Mycobacterium tuberculosis. Put plainly: Antimycobacterial activity against Mycobacterium tuberculosis H37Rv ATCC 27294 after 7 days by microplate Alamar blue assay. It counts as functional. The note with it: 168 h. (In general: Alamar Blue is a resazurin reagent that responds to reducing activity.)
Experiment [2] has as its system Mycobacterium tuberculosis. The experiment is described as follows: Antimycobacterial activity against Mycobacterium tuberculosis H37Rv GFP after 7 days by green fluorescent microplate assay. It counts as functional. The note with it: 168 h.

Values after ≈ are worked out from the molar mass of the structure shown.

In general, MIC refers to the lowest concentration found to suppress growth. Lower therefore signals greater potency.

In experiment [1], `CC1(C)CC[C@]2(C(=O)O)CC[C@]3(C)C(=CC[C@@H]4[C@@]5(C)CC[C@H](O)C(C)(C)[C@@H]5CC[C@]43C)[C@@H]2C1` [OLEANOLIC_ACID] showed an MIC of 100 µg/mL (≈ 219 µM).

As for `C[C@H]1[C@H](C)CC[C@]2(C(=O)O)CC[C@]3(C)C(=CC[C@@H]4[C@@]5(C)CC[C@H](O)C(C)(C)[C@@H]5CC[C@]43C)[C@H]12` [URSOLIC ACID], the MIC is above 256 µg/mL in experiment [1] and above 100 µg/mL in experiment [2].

In experiment [1], `C=C(C)[C@@H]1CC[C@]2(C(=O)O)CC[C@]3(C)[C@H](CC[C@@H]4[C@@]5(C)CC[C@H](O)C(C)(C)[C@@H]5CC[C@]43C)[C@@H]12` [BETULINIC ACID] showed an MIC above 128 µg/mL.

For the origin of these results see ChEMBL document CHEMBL1140125, “Purity-activity relationships of natural products: the case of anti-TB active ursolic acid” (2008).
